Data as given in patent US12215106B2, “Pharmaceutical compounds and therapeutic methods” (RUTGERS, THE STATE UNIVERSITY OF NEW JERSEY, priority 2018, dated 2025).
Where a name gives a salt, the structure may show the parent alone. Read-outs that look alike come from different tables or passages of the source.

Legend:
[1] = tested on: glioblastoma patient derived spheres; assay: MTT assay, cell viability of patient derived GBM spheres; format: cell-based; settings: Homo sapiens
Excerpt: To generate primary patient-derived GBM models for testing small molecule inhibitors, fresh primary tissues were received from patients undergoing surgical resection of WHO grade IV gliomas at Robert Wood Johnson University Hospital (RWJUH) under an approved IRB protocol. De-identified primary human GBM samples were delivered to the laboratory. Cells were obtained through mechanical dissociation of the tumor tissue using a blade and plated in DMEM/F12 medium (Gibco) in the presence of B-27 Supplement (Gibco, #17504-044), 20 ng/ml of human recombinant EGF (Gibco, #PHG0311L) and human recombinant FGF (Peprotech, #AF-100-18B). The following day, the culture was collected, incubated with Accutase (Gibco, #A11105-01) at 37° C. and passed through a 26G×⅜ needle (BD Precision Glide, #305110) to obtain a single cell suspension and re-plated in the same supplemented medium. Cells were cultured at low (5-6) passages in serum-free sphere 3D culture with mitogens that preserve the clonogenic stemness phenotype. […] different primary GBM cells (GBM #46, GBM #50, and GBM #76) were tested for cell viability after treatment with the inhibitors. Cell viability was measured using MTT assay. Briefly, one thousand cells per well were seeded in 96-well plates and exposed to drug in a total of 200 uL media. After 72 hours, 50 uL of stock concentration of 2.5 mg/mL 3-(4,5-dimethylthiazol-2-yl)-2,5-diphenyltetrazolium bromide (MTT) (Sigma, #M2128) dissolved in PBS was added to wells and incubated at 37° C. for 4 hours; read in a […] plate reader at 570 nm and compared to DMSO and untreated cells. The IC50 (defined as the concentration at which 50% of the cells were viable) was determined from the curve.
Novel compounds were synthesized and examined for their effectiveness on inhibiting the growth of patient derived GBM sphere cells that are more enriched in cancer stem-like cells (CSCs). An IC50 was established by measuring cell viability using a MTT assay when compared to vehicle control (DMSO) (FIG. 1-6).

in vitro [2] = settings: pH 7.4; for % Remaining at 60 min (Buffer) / % Remaining at 60 min (+NADPH) / % Remaining at 60 min (−NADPH) / Percentage turnover in MLM (percent remaining), 60 min: 1 h; for % Remaining at 60 min (Buffer) / CLh, int / Percentage turnover in MLM (percent remaining), 0 min / Percentage turnover in MLM (percent remaining), 5 min / Percentage turnover in MLM (percent remaining), 15 min / Percentage turnover in MLM (percent remaining), 30 min / % Remaining at 60 min (+NADPH) / % Remaining at 60 min (−NADPH) / Percentage turnover in MLM (percent remaining), 60 min / Metabolic stability in liver microsomes, compound remaining: 1 μM; for CLh, int / Percentage turnover in MLM (percent remaining), 0 min / Percentage turnover in MLM (percent remaining), 5 min / Percentage turnover in MLM (percent remaining), 15 min / Percentage turnover in MLM (percent remaining), 30 min / % Remaining at 60 min (+NADPH) / % Remaining at 60 min (−NADPH) / Percentage turnover in MLM (percent remaining), 60 min / Metabolic stability in liver microsomes, compound remaining / half-life at 1 μM: mouse; for Percentage turnover in MLM (percent remaining), 0 min / Percentage turnover in MLM (percent remaining), 5 min / Percentage turnover in MLM (percent remaining), 15 min / Percentage turnover in MLM (percent remaining), 30 min / % Remaining at 60 min (+NADPH) / % Remaining at 60 min (−NADPH) / Percentage turnover in MLM (percent remaining), 60 min / Metabolic stability in liver microsomes, compound remaining / half-life at 1 μM: microsomes; for Percentage turnover in MLM (percent remaining), 0 min: 0 h; for Percentage turnover in MLM (percent remaining), 15 min: 0.25 h; for Percentage turnover in MLM (percent remaining), 30 min: 0.5 h; for Metabolic stability in liver microsomes, compound remaining: 60 min
Procedure: The objective of the study was to evaluate the metabolic stability of test compounds in liver microsomes from mice (MLM). This was accomplished by incubating test compounds with microsomes and monitoring disappearance with time using LCMS/MS. Imipramine in MLM was run as positive control.
Potassium phosphate buffer (Kphos) was prepared by adding 0.647 g potassium phosphate monobasic (KH2PO4) and 3.527 g potassium phosphate dibasic (K2HPO4) to 400 mL of Milli-Q water. pH of the buffer was adjusted to 7.4 and volume was made up to 500 mL.
Stock solutions of test compounds were prepared in DMSO at a concentration of 1 mM.
From the above mix, 70 μL was added to individual wells of 96 well reaction plates and pre-incubated at 37° C. for 5 min. […] Reactions without NADPH and buffer controls (minus NADPH) at 0 minutes and 60 minutes were also incubated to rule out non-NADPH metabolism or chemical instability in the incubation buffer. All reactions were terminated using 100 μL of ice-cold acetonitrile containing internal standard (glipizide) at 0, 5, 15, 30 and 60 minutes.
Samples were monitored for parent compounds disappearance in MRM mode using LC-MS/MS.
The percent remaining of test compounds and positive control in each sample was determined by considering peak area ratio in the 0 minute sample as 100%.
In vitro intrinsic clearance (CL'int) (units in mL/min/kg) was also calculated.

in vitro [3] = format: in vitro ADME, mice; settings: mouse; for recovery at 4 h, 5 µM: pH 7.4; for fraction unbound at 4 h, 5 μM: plasma
Procedure: (§1) The objective of this study was to evaluate protein binding test compounds in mice plasma. This was accomplished by spiking the test compounds at a concentration of 5 μM into mice plasma and dialyzing against buffer until equilibrium is achieved (4 hours). Analyte area ratios of the test compounds in plasma and buffer were determined to calculate unbound and bound percentages of compound to the plasma proteins.
(§2) Phosphate buffered saline pack (0.1 M sodium phosphate and 0.15 M sodium chloride, pH 7.2) was dissolved in 500 mL of deionized water and pH was adjusted to 7.4 with 0.5 N NaOH.
(§3) 1 mM stock solutions were prepared in DMSO and diluted 200-folds in mice plasma to prepare a concentration of 5 μM. The final DMSO concentration in plasma was 0.5%.
(§4) Rapid equilibrium dialysis was performed with a rapid equilibrium dialysis (RED) device containing dialysis membrane with a molecular weight cut-off of 8,000 Daltons. Each dialysis insert contains two chambers. The red chamber is for plasma while the white chamber is for buffer.
(§5) A 200 μL aliquot of warfarin and test compound at 5 (triplicates) were separately added to the plasma chamber and 350 μL of phosphate buffer saline (pH 7.4) was added to the buffer chamber of the inserts. After sealing the RED device with an adhesive film, dialysis was performed in incubator at 37° C. with shaking at 100 RPM for 4 hours.
(§6) A 50 μL aliquot of warfarin and test compounds were added to four 0.5 mL microfuse tubes. Two aliquots were frozen immediately (0 minute sample). The other two aliquots were incubated at 37° C. for 4 hours along with the RED device.
(§7) Following dialysis, an aliquot of 50 μL was removed from each well (both plasma and buffer side) and diluted with equal volume of opposite matrix (dialyzed with the other matrix) to nullify the matrix effect. Similarly, 50 μL of buffer was added to recovery and stability samples. An aliquot of 100 μL was submitted for LCMS/MS analysis.
(§8) A 25 μL aliquot of warfarin and test compounds were crashed with 100 μL of acetonitrile containing internal standard (glipizide) and vortexed for 5 minutes. The samples were centrifuged at 4000 RPM at 4° C. for 10 min and 100 μL of supernatant was submitted for LC-MS/MS analysis. Samples were monitored for parent compound in MRM mode using LC-MS/MS.
(§9) The peak area ratios (analyte versus internal standard) obtained were used to determine the fraction of compound bound to plasma proteins.

mice plasma = assay: in vitro; format: in vitro ADME; settings: mouse, plasma, 4 h, 5 μM
Procedure: as §1, §2, §3, §4, §5, §6, §7, §8, §9

[4] = 72 h, read-out: IC50, antitumor activity against glioblastoma patient derived spheres
[5] = read-out: Potency in patient derived GBM spheres

COc1c(F)cc(Nc2nc(-c3c(C)nc4ccccn34)cs2)cc1F [Compound 14, hydrochloride]
IC50 ([1]; MTT, 72 hours, figure legends, read-out: IC50, antitumor activity against glioblastoma patient derived spheres): 7 nM
IC50 ([1]; summary data, read-out: Potency in patient derived GBM spheres): 10 nM
% Remaining at 60 min (Buffer) (in vitro [2]): 66%
CLh, int (in vitro [2]): 550 mL/min/kg
Percentage turnover in MLM (percent remaining), 0 min (in vitro [2]): 100%
Percentage turnover in MLM (percent remaining), 5 min (in vitro [2]): 88%
Percentage turnover in MLM (percent remaining), 15 min (in vitro [2]): 62%
Percentage turnover in MLM (percent remaining), 30 min (in vitro [2]): 36%
% Remaining at 60 min (+NADPH) (in vitro [2]): 13%
% Remaining at 60 min (−NADPH) (in vitro [2]): 33%
Percentage turnover in MLM (percent remaining), 60 min (in vitro [2]): 13%
Metabolic stability in liver microsomes, compound remaining (in vitro [2]): < 50%
half-life at 1 μM (in vitro [2]): 20 min
recovery at 4 h, 5 µM (in vitro [3]): 124%
fraction unbound at 4 h, 5 μM (in vitro [3]; pH 7.4, % Bound Mean ± SD): 0.003
fraction unbound at 4 h, 5 μM (in vitro [3]; pH 7.4, % Bound R1): 0.002
fraction unbound at 4 h, 5 μM (in vitro [3]; pH 7.4, % Bound R2): 0.003
fraction unbound at 4 h, 5 μM (in vitro [3]; pH 7.4, % Bound R3): 0.002
fraction unbound at 4 h, 5 μM (in vitro [3]; pH 7.4, PPB at 4 h): 0.24
% compound remaining at 4 hrs (mice plasma): 76%

[2H]C([2H])([2H])Oc1ccc(Nc2nc(-c3c(C)nc4ccccn34)cs2)cc1 [Compound 15, N-(4-(methoxy-d3)phenyl)-4-(2-methylimidazo[1,2-c]pyridin-3-yl)thiazol-2-amine hydrochloride]
IC50 [1, 4]: 7 nM
IC50 [1, 5]: 1000 nM
% Remaining at 60 min (Buffer) (in vitro [2]): 85%
CLh, int (in vitro [2]): 215 mL/min/kg
Percentage turnover in MLM (percent remaining), 0 min (in vitro [2]): 100%
Percentage turnover in MLM (percent remaining), 5 min (in vitro [2]): 100%
Percentage turnover in MLM (percent remaining), 15 min (in vitro [2]): 98%
Percentage turnover in MLM (percent remaining), 30 min (in vitro [2]): 67%
% Remaining at 60 min (+NADPH) (in vitro [2]): 48%
% Remaining at 60 min (−NADPH) (in vitro [2]): 93%
Percentage turnover in MLM (percent remaining), 60 min (in vitro [2]): 48%
Metabolic stability in liver microsomes, compound remaining (in vitro [2]): < 50%
half-life at 1 μM (in vitro [2]): 52 min
recovery at 4 h, 5 µM (in vitro [3]; Plasma): 114%
fraction unbound at 4 h, 5 μM (in vitro [3]; pH 7.4, % Bound Mean ± SD): 0.001
fraction unbound at 4 h, 5 μM (in vitro [3]; pH 7.4, % Bound R1): 0.001
fraction unbound at 4 h, 5 μM (in vitro [3]; pH 7.4, % Bound R2): 0.001
fraction unbound at 4 h, 5 μM (in vitro [3]; pH 7.4, % Bound R3): 0.001
fraction unbound at 4 h, 5 μM (in vitro [3]; pH 7.4, PPB at 4 h): 0.1
% compound remaining at 4 hrs (mice plasma): 90%

Cc1nc2ccccn2c1-c1csc(Nc2ccc3c(c2)OC(F)(F)O3)n1 [Compound 16, N-(2,2-difluorobenzo[d][1,3]dioxol-5-yl)-4-(2-methylimidazo[1,2-a]pyridin-3-yl)thiazol-2-amine hydrochloride]
IC50 [1, 4]: 200 nM
IC50 [1, 5]: 10 nM
% Remaining at 60 min (Buffer) (in vitro [2]): 87%
CLh, int (in vitro [2]): 759 mL/min/kg
Percentage turnover in MLM (percent remaining), 0 min (in vitro [2]): 100%
Percentage turnover in MLM (percent remaining), 5 min (in vitro [2]): 83%
Percentage turnover in MLM (percent remaining), 15 min (in vitro [2]): 58%
Percentage turnover in MLM (percent remaining), 30 min (in vitro [2]): 35%
% Remaining at 60 min (+NADPH) (in vitro [2]): 6%
% Remaining at 60 min (−NADPH) (in vitro [2]): 62%
Percentage turnover in MLM (percent remaining), 60 min (in vitro [2]): 6%
Metabolic stability in liver microsomes, compound remaining (in vitro [2]): < 50%
half-life at 1 μM (in vitro [2]): 15 min
recovery at 4 h, 5 µM (in vitro [3]; Plasma): 117%
fraction unbound at 4 h, 5 μM (in vitro [3]; pH 7.4, % Bound Mean ± SD): 0.01
fraction unbound at 4 h, 5 μM (in vitro [3]; pH 7.4, % Bound R1): 0.01
fraction unbound at 4 h, 5 μM (in vitro [3]; pH 7.4, % Bound R2): 0.01
fraction unbound at 4 h, 5 μM (in vitro [3]; pH 7.4, % Bound R3): 0.011
fraction unbound at 4 h, 5 μM (in vitro [3]; pH 7.4, PPB at 4 h): 0.24
% compound remaining at 4 hrs (mice plasma): 76%

[2H]C1([2H])Oc2ccc(Nc3nc(-c4c(C)nc5ccccn45)cs3)cc2O1 [Compound 17, N-(benzo[d][1,3]dioxol-5-yl-2,2-d2)-4-(2-methylimidazo[1,2-c]pyridin-3-yl)thiazol-2-amine hydrochloride]
IC50 [1, 4]: 20 nM
IC50 [1, 5]: 10 nM
% Remaining at 60 min (Buffer) (in vitro [2]): 101%
CLh, int (in vitro [2]): 953 mL/min/kg
Percentage turnover in MLM (percent remaining), 0 min (in vitro [2]): 100%
Percentage turnover in MLM (percent remaining), 5 min (in vitro [2]): 91%
Percentage turnover in MLM (percent remaining), 15 min (in vitro [2]): 56%
Percentage turnover in MLM (percent remaining), 30 min (in vitro [2]): 20%
% Remaining at 60 min (+NADPH) (in vitro [2]): 3%
% Remaining at 60 min (−NADPH) (in vitro [2]): 81%
Percentage turnover in MLM (percent remaining), 60 min (in vitro [2]): 3%
Metabolic stability in liver microsomes, compound remaining (in vitro [2]): < 50%
half-life at 1 μM (in vitro [2]): 12 min
recovery at 4 h, 5 µM (in vitro [3]): 124%
fraction unbound at 4 h, 5 μM (in vitro [3]; pH 7.4, % Bound Mean ± SD): 0.006
fraction unbound at 4 h, 5 μM (in vitro [3]; pH 7.4, % Bound R1): 0.008
fraction unbound at 4 h, 5 μM (in vitro [3]; pH 7.4, % Bound R2): 0.004
fraction unbound at 4 h, 5 μM (in vitro [3]; pH 7.4, % Bound R3): 0.005
fraction unbound at 4 h, 5 μM (in vitro [3]; pH 7.4, PPB at 4 h): 0.25
% compound remaining at 4 hrs (mice plasma): 75%
